Experimental data published in patent publication US20230382904A1, “SUBSTITUTED 4-([1,2,4]TRIAZOLO[1,5-a]PYRIDIN-6-YL)THIOPHENE-2-CARBOXAMIDE DERIVATIVES AND USE THEREOF” (The Johns Hopkins University, priority 2020, published 2023).

Key:
DLK = DLK (Homo sapiens (Human), UniProt Q12852); test: DLK biochemical assay (TR-FRET, MKK7 phosphorylation)
Method in brief: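 TR-FRET ratio (665/Eu) reports MKK7 T275/S277 phosphorylation, lowered by DLK inhibition. Reaction: 60 μM ATP, 15 nM MKK7, 10 nM DLK catalytic domain, 90 min room temperature; detection incubation 16 h, 37° C. (1536-well) or 4° C. (384-well). Final concentrations.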

LZK = LZK (Homo sapiens (Human), UniProt O43283); test: LZK biochemical assay (TR-FRET, MKK7 phosphorylation)
Sequence of LZK (O43283 168-409): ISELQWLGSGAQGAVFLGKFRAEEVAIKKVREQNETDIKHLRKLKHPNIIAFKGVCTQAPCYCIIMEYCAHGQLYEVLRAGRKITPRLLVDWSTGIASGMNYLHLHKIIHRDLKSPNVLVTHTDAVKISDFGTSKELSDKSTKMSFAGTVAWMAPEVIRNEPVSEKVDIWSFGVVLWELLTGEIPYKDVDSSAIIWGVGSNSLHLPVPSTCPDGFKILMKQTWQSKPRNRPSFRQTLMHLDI
Method in brief: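 Readout is the HTRF ratio (XL665/Eu) from an EDTA-containing detection mix of 0.4 nM Eu-anti-phospho-MKK7 (T275/S277) and 20 nM XL665-anti-His, incubated 16 h at 32° C. This followed a 90 min RT reaction of 10 nM LZK catalytic domain, 15 nM MKK7 and 15 μM ATP at pH 7.5.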

Sequence of DLK (Q12852 1-520): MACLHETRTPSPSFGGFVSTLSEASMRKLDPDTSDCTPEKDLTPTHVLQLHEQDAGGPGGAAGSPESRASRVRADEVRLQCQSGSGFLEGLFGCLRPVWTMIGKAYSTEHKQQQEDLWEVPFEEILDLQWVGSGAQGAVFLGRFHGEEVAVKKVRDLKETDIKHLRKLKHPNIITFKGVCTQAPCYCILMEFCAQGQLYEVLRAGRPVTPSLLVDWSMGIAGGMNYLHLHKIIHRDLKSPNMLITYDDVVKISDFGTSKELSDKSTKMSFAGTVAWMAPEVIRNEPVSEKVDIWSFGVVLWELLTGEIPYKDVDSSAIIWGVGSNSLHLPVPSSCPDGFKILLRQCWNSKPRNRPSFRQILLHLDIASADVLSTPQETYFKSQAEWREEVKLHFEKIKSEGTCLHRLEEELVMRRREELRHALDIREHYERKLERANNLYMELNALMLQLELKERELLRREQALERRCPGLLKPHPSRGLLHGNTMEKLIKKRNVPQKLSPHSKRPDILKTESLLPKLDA

| SMILES | IC50 (DLK) [µM] | IC50 (LZK) [µM] |
| --- | --- | --- |
| Nc1nc2ccc(-c3csc(C(=O)NCc4ccc(CN5CCOCC5)cc4)c3)cn2n1 [Compound 342] | 0.52 | 17 |
| CN1CCN(Cc2ccc(CNC(=O)c3cc(-c4ccc5nc(N)nn5c4)cs3)cc2)CC1 [Compound 343] | 0.86 | 27 |
| Nc1nc2ccc(-c3csc(C(=O)NCc4ccc(CN5CCCC5)cc4)c3)cn2n1 [Compound 344] | 0.47 | 21 |
| C[C@@H](CO)NC(=O)c1cc(-c2ccc3nc(N)nn3c2)cs1 [Compound 345] | 2.3 | > 30 |
| Nc1nc2ccc(-c3csc(C(=O)NC(c4ccccc4)C4CC4)c3)cn2n1 (centres unmarked) [Compound 346] | 0.079 | 29 |
| Nc1nc2ccc(-c3csc(C(=O)NC(c4ccccc4)C4CC4)c3)cn2n1 (centres unmarked) [Compound 347] | 0.13 | > 30 |
| CC(NC(=O)c1cc(-c2ccc3nc(N)nn3c2)cs1)c1ccc(C(C)(C)C)cc1 (centres unmarked) [Compound 348] | 30 | 30 |
| Cc1ccc([C@H](C)NC(=O)c2cc(-c3ccc4nc(N)nn4c3)cs2)cc1 [Compound 349] | 0.23 | 24 |
| CC(NC(=O)c1cc(-c2ccc3nc(N)nn3c2)cs1)c1nccn1C (centres unmarked) [Compound 350] | 0.76 | 20.5 |
| Cc1c(-c2ccc3nc(N)nn3c2)csc1C(=O)N[C@@H](C)c1ccc(F)cc1 [Compound 351] | 6.4 | 20 |
| Cc1c(-c2ccc3nc(N)nn3c2)csc1C(=O)NCc1ccc(F)cc1 [Compound 352] | 1 | > 30 |
| C[C@H](NC(=O)c1cc(-c2ccc3nc(N)nn3c2)cs1)c1ccc(C(F)(F)F)cc1 [Compound 353] | 0.21 | > 30 |
| COc1ccc([C@H](C)NC(=O)c2cc(-c3ccc4nc(N)nn4c3)cs2)cc1 [Compound 354] | 0.11 | > 30 |
| C[C@H](NC(=O)c1cc(-c2ccc3nc(N)nn3c2)cs1)c1ccc(Cl)cc1 [Compound 355] | 0.21 | > 30 |
| C[C@H](NC(=O)c1cc(-c2ccc3nc(N)nn3c2)cs1)c1ccc(OC(F)(F)F)cc1 [Compound 356] | 0.31 | > 30 |
| CC(NC(=O)c1cc(-c2ccc3nc(N)nn3c2)cs1)c1ccc(OCC(F)F)cc1 (centres unmarked) [Compound 357] | 0.21 | > 30 |
| C[C@H](NC(=O)c1cc(-c2ccc3nc(N)nn3c2)cs1)c1nc2ccccc2o1 [Compound 358] | 0.11 | 1.2 |
| C[C@H](NC(=O)c1cc(-c2ccc3nc(N)nn3c2)cs1)c1ccccc1F [Compound 359] | 0.16 | > 30 |
| CC(NC(=O)c1cc(-c2ccc3nc(N)nn3c2)cs1)c1ccc(F)cc1F (centres unmarked) [Compound 360] | 0.4 | > 30 |
| CC(NC(=O)c1cc(-c2ccc3nc(N)nn3c2)cs1)c1ccc(OC(F)(F)F)cc1 (centres unmarked) [Compound 361] | 1.9 | > 30 |

| SMILES | IC50 (DLK) [µM] | IC50 (LZK) [µM] |
| --- | --- | --- |
| C[C@H](NC(=O)c1cc(-c2ccc3nc(N)nn3c2)c(F)s1)c1ccc(F)cc1 [Compound 362] | 8.2 | 23 |
| Nc1nc2cc(-c3csc(C(=O)NCc4ccc(F)cc4)c3)ccn2n1 [Compound 363] | 0.64 | 8.7 |
| COc1cccc(CNC(=O)c2cc(-c3ccn4nc(N)nc4c3)cs2)c1 [Compound 364] | 0.4 | 19 |
| Nc1nc2cc(-c3csc(C(=O)NCc4ccccc4)c3)ccn2n1 [Compound 365] | 0.5 | 11 |
| Nc1nc2cc(-c3csc(C(=O)NCC4CCCCC4)c3)ccn2n1 [Compound 366] | 0.31 | > 30 |
| CCOc1cccc(CNC(=O)c2cc(-c3ccn4nc(N)nc4c3)cs2)c1 [Compound 367] | 0.3 | 28 |
| Cc1cccc(C)c1NC(=O)c1cc(-c2ccn3nc(N)nc3c2)cs1 [Compound 368] | 0.67 | 13 |
| C[C@H](NC(=O)c1cc(-c2ccn3nc(N)nc3c2)cs1)c1ccc(F)cc1 [Compound 369] | 0.23 | 1.9 |
| Nc1nc2cc(-c3csc(C(=O)NCc4ccc(F)cc4)c3)cc(C(=O)O)n2n1 [Compound 370] | 4.4 | > 30 |
| Cc1cc(-c2csc(C(=O)NCc3ccc(F)cc3)c2)cn2nc(N)nc12 [Compound 371] | 0.5 | 2.3 |
| COc1cccc(CNC(=O)c2cc(-c3cc(C)c4nc(N)nn4c3)cs2)c1 [Compound 372] | 0.43 | 9.2 |
| Cc1cc(-c2csc(C(=O)NCc3ccccc3)c2)cn2nc(N)nc12 [Compound 373] | 0.37 | 2.8 |
| Cc1cc(-c2csc(C(=O)NC3CCCCC3)c2)cn2nc(N)nc12 [Compound 374] | 0.28 | 9.3 |
| Nc1nc2c(C(F)(F)F)cc(-c3csc(C(=O)NCc4ccc(F)cc4)c3)cn2n1 [Compound 375] | 0.84 | 3.3 |
| C[C@H](NC(=O)c1cc(-c2cc(C(F)(F)F)c3nc(N)nn3c2)cs1)c1ccccc1 [Compound 376] | 0.26 | 4.9 |
| C[C@H](NC(=O)c1cc(-c2cc(C(F)(F)F)c3nc(N)nn3c2)cs1)c1ccc(F)cc1 [Compound 377] | 0.21 | 2.4 |
| Nc1nc2c(C(F)(F)F)cc(-c3csc(C(=O)NCc4ccccc4)c3)cn2n1 [Compound 378] | 1.8 | 9.5 |
| Nc1nc2c(C(F)(F)F)cc(-c3csc(C(=O)NC4CCCCC4)c3)cn2n1 [Compound 379] | 0.97 | 20 |
| COc1cccc(CNC(=O)c2cc(-c3cc(C(F)(F)F)c4nc(N)nn4c3)cs2)c1 [Compound 380] | 1.1 | > 30 |
| COc1cccc(CNC(=O)c2cc(-c3cc(F)c4nc(N)nn4c3)cs2)c1 [Compound 381] | 0.38 | > 30 |

| SMILES | IC50 (DLK) [µM] | IC50 (LZK) [µM] |
| --- | --- | --- |
| Nc1nc2c(F)cc(-c3csc(C(=O)NCc4ccc(F)cc4)c3)cn2n1 [Compound 382] | 0.31 | > 30 |
| C[C@H](NC(=O)c1cc(-c2cc(F)c3nc(N)nn3c2)cs1)c1ccc(F)cc1 [Compound 383] | > 30 | > 30 |
| CC(C)NS(=O)(=O)c1cc(-c2csc(C(=O)N[C@@H](C)c3ccc(F)cc3)c2)cn2nc(N)nc12 [Compound 384] | > 30 | > 30 |
| CCNS(=O)(=O)c1cc(-c2csc(C(=O)N[C@@H](C)c3ccc(F)cc3)c2)cn2nc(N)nc12 [Compound 385] | 11 | > 30 |
| CNS(=O)(=O)c1cc(-c2csc(C(=O)N[C@@H](C)c3ccc(F)cc3)c2)cn2nc(N)nc12 [Compound 386] | 3.4 | > 30 |
| COCc1cc(-c2csc(C(=O)NCc3ccc(F)cc3)c2)cn2nc(N)nc12 [Compound 387] | 0.75 | 2.8 |
| COCc1cc(-c2csc(C(=O)N[C@@H](C)c3ccc(F)cc3)c2)cn2nc(N)nc12 [Compound 388] | 0.21 | 1.2 |
| CC(C)c1nnc(-c2cc(-c3csc(C(=O)N[C@@H](C)c4ccc(F)cc4)c3)cn3nc(N)nc23)s1 [Compound 392] | 0.1 | 0.83 |
| CCc1nnc(-c2cc(-c3csc(C(=O)NCc4ccc(F)cc4)c3)cn3nc(N)nc23)s1 [Compound 394] | 0.41 | 2.5 |
| CCc1nnc(-c2cc(-c3csc(C(=O)NCc4ccc(F)cc4)c3)cn3nc(N)nc23)o1 [Compound 395] | 1.1 | 3.6 |
| CCc1nnc(-c2cc(-c3csc(C(=O)N[C@@H](C)c4ccc(F)cc4)c3)cn3nc(N)nc23)o1 [Compound 396] | 0.31 | 0.98 |
| CCc1nnc(-c2cc(-c3csc(C(=O)N[C@@H](C)c4ccc(F)cc4)c3)cn3nc(N)nc23)s1 [Compound 397] | 0.073 | 1.1 |
| CCC(C)c1nnc(-c2cc(-c3csc(C(=O)N[C@@H](CC)c4ccc(F)cc4)c3)cn3nc(N)nc23)s1 (some centres unmarked) [Compound 398] | 0.88 | 3.9 |
| CCC(C)c1nnc(-c2cc(-c3csc(C(=O)N[C@@H](C)c4ccc(F)cc4)c3)cn3nc(N)nc23)s1 (some centres unmarked) [Compound 399] | 1.76 | 3.95 |
| CCC(C)c1nnc(-c2cc(-c3csc(C(=O)NCc4ccc(F)cc4)c3)cn3nc(N)nc23)s1 (centres unmarked) [Compound 400] | 2.15 | 4.35 |
| CC[C@H](NC(=O)c1cc(-c2cc(-c3nnc([C@@H](C)CO)s3)c3nc(N)nn3c2)cs1)c1ccc(F)cc1 [Compound 401] | 0.0081 | 0.115 |
| CC[C@H](NC(=O)c1cc(-c2cc(-c3cnn(CC(F)(F)F)c3)n3nc(N)nc3c2)cs1)c1ccc(F)cc1 [Compound 402] | 0.069 | 1.9 |
| CC[C@H](NC(=O)c1cc(-c2cc(-c3cnn(CC(F)(F)F)c3)c3nc(N)nn3c2)cs1)c1ccc(F)cc1 [Compound 403] | 0.14 | 5.7 |
